# Experiments:
# T47D = assay: Growth inhibition of human T47D cells assessed as cell growth at 10 uM after 48 hrs by sulforhodamine B assay; type: functional; conditions: read-out: Activity
# MDA-MB-468 = assay: Growth inhibition of human MDA-MB-468 cells assessed as cell growth at 10 uM after 48 hrs by sulforhodamine B assay; type: functional; conditions: MDA-MB-468, 48 h, read-out: Activity
# [1] = Growth inhibition of human Hs 578T cells assessed as cell growth at 10 uM after 48 hrs by sulforhodamine B assay; type: functional; conditions: read-out: Activity
# TK-10 = assay: Growth inhibition of human TK10 cells assessed as cell growth at 10 uM after 48 hrs by sulforhodamine B assay; type: functional; conditions: TK-10, 48 h, read-out: Activity
# KM12 = assay: Growth inhibition of human KM12 cells after 48 hrs by sulforhodamine B assay; type: functional, cell-based; conditions: KM12, 48 h; for CC50: read-out: LC50 (the source's name)
# HCT-116 = assay: Growth inhibition of human HCT116 cells after 48 hrs by sulforhodamine B assay; type: functional; conditions: HCT-116, 48 h; for CC50: read-out: LC50 (the source's name)
# HCT-15 [2] = assay: Growth inhibition of human HCT15 cells after 48 hrs by sulforhodamine B assay; type: functional; conditions: HCT-15, 48 h
# NCI-H23 = assay: Growth inhibition of human NCI-H23 cells after 48 hrs by sulforhodamine B assay; type: functional; conditions: NCI-H23, 48 h
# SR = assay: Growth inhibition of human SR cells after 48 hrs by sulforhodamine B assay; type: functional; conditions: for CC50: read-out: LC50 (the source's name)
# MOLT-4 [3] = assay: Growth inhibition of human MOLT4 cells after 48 hrs by sulforhodamine B assay; type: functional; conditions: MOLT-4, 48 h; for CC50: read-out: LC50 (the source's name)
# OVCAR-3 = assay: Growth inhibition of human OVCAR3 cells assessed as cell growth at 10 uM after 48 hrs by sulforhodamine B assay; type: functional; conditions: OVCAR-3, 48 h, read-out: Activity
# IGROV-1 = assay: Growth inhibition of human IGROV1 cells assessed as cell growth at 10 uM after 48 hrs by sulforhodamine B assay; type: functional; conditions: IGROV-1, 48 h, read-out: Activity
# SK-MEL-5 [4] = assay: Growth inhibition of human SK-MEL-5 cells assessed as cell growth at 10 uM after 48 hrs by sulforhodamine B assay; type: functional; conditions: SK-MEL-5, 48 h, read-out: Activity
# MDA-MB-435 = assay: Growth inhibition of human MDA-MB-435 cells assessed as cell growth at 10 uM after 48 hrs by sulforhodamine B assay; type: functional; conditions: MDA-MB-435, 48 h, read-out: Activity
# LOX IMVI = assay: Growth inhibition of human LOXIMVI cells assessed as cell growth at 10 uM after 48 hrs by sulforhodamine B assay; type: functional; conditions: read-out: Activity
# SF-539 = assay: Growth inhibition of human SF539 cells assessed as cell growth at 10 uM after 48 hrs by sulforhodamine B assay; type: functional; conditions: SF-539, 48 h, read-out: Activity
# SF-268 = assay: Growth inhibition of human SF268 cells assessed as cell growth at 10 uM after 48 hrs by sulforhodamine B assay; type: functional; conditions: SF-268, 48 h, read-out: Activity
# HCT-15 [5] = assay: Growth inhibition of human HCT15 cells assessed as cell growth at 10 uM after 48 hrs by sulforhodamine B assay; type: functional; conditions: HCT-15, 48 h, read-out: Activity
# NCI-H460 = assay: Growth inhibition of human NCI-H460 cells assessed as cell growth at 10 uM after 48 hrs by sulforhodamine B assay; type: functional; conditions: NCI-H460, 48 h, read-out: Activity
# NCI-H322M = assay: Growth inhibition of human NCI-H322M cells assessed as cell growth at 10 uM after 48 hrs by sulforhodamine B assay; type: functional; conditions: read-out: Activity
# DU-145 = assay: Growth inhibition of human DU145 cells after 48 hrs by sulforhodamine B assay; type: functional; conditions: DU-145, 48 h
# UO-31 = assay: Growth inhibition of human UO31 cells after 48 hrs by sulforhodamine B assay; type: functional; conditions: UO-31, 48 h; for CC50: read-out: LC50 (the source's name)
# PC-3 = assay: Growth inhibition of human PC3 cells after 48 hrs by sulforhodamine B assay; type: functional, cell-based; conditions: PC-3, 48 h; for CC50: read-out: LC50 (the source's name)
# RXF 393 = assay: Growth inhibition of human RXF393 cells after 48 hrs by sulforhodamine B assay; type: functional; conditions: RXF 393, 48 h
# SN12C = assay: Growth inhibition of human SN12C cells after 48 hrs by sulforhodamine B assay; type: functional; conditions: for CC50: read-out: LC50 (the source's name)
# OVCAR-5 = assay: Growth inhibition of human OVCAR5 cells after 48 hrs by sulforhodamine B assay; type: functional; conditions: OVCAR-5, 48 h
# OVCAR-4 = assay: Growth inhibition of human OVCAR4 cells after 48 hrs by sulforhodamine B assay; type: functional; conditions: OVCAR-4, 48 h
# SK-MEL-5 [6] = assay: Growth inhibition of human SK-MEL-5 cells after 48 hrs by sulforhodamine B assay; type: functional; conditions: SK-MEL-5, 48 h
# UACC-257 = assay: Growth inhibition of human UACC257 cells after 48 hrs by sulforhodamine B assay; type: functional; conditions: UACC-257, 48 h; for CC50: read-out: LC50 (the source's name)
# M14 = assay: Growth inhibition of human M14 cells after 48 hrs by sulforhodamine B assay; type: functional; conditions: M14, 48 h
# SNB-19 = assay: Growth inhibition of human SNB19 cells after 48 hrs by sulforhodamine B assay; type: functional; conditions: SNB-19, 48 h
# RPMI-8226 = assay: Growth inhibition of human RPMI8226 cells assessed as cell growth at 10 uM after 48 hrs by sulforhodamine B assay; type: functional; conditions: RPMI-8226, 48 h, read-out: Activity
# MOLT-4 [7] = assay: Growth inhibition of human MOLT4 cells assessed as cell growth at 10 uM after 48 hrs by sulforhodamine B assay; type: functional; conditions: MOLT-4, 48 h, read-out: Activity
# CCRF-CEM = assay: Growth inhibition of human CCRF-CEM cells assessed as cell growth at 10 uM after 48 hrs by sulforhodamine B assay; type: functional; conditions: read-out: Activity
compound,measurement,setting,value
O=C(Nc1cccc(-n2cc(-c3ccncc3)c(-c3ccc(Cl)c(O)c3)n2)c1)Nc1cccc(C(F)(F)F)c1,growth at 10 µM,T47D,18.5%
same,growth at 10 µM,MDA-MB-468,10.5%
same,growth at 10 µM,[1],29.4%
same,growth at 10 µM,TK-10,21.9%
same,GI50,KM12,1.33 µM
same,TGI,KM12,> 32.5 µM
same,CC50,KM12,> 32.5 µM
same,GI50,HCT-116,1.39 µM
same,TGI,HCT-116,8.26 µM
same,CC50,HCT-116,> 32.5 µM
same,GI50,HCT-15 [2],1.51 µM
same,LC50,HCT-15 [2],> 32.5 µM
same,TGI,HCT-15 [2],> 32.5 µM
same,GI50,NCI-H23,1.9 µM
same,LC50,NCI-H23,> 32.5 µM
same,TGI,NCI-H23,> 32.5 µM
same,GI50,SR,1.82 µM
same,TGI,SR,20 µM
same,CC50,SR,> 32.5 µM
same,GI50,MOLT-4 [3],1.92 µM
same,TGI,MOLT-4 [3],> 32.5 µM
same,CC50,MOLT-4 [3],> 32.5 µM
same,growth at 10 µM,OVCAR-3,0.81%
same,growth at 10 µM,IGROV-1,28.6%
same,growth at 10 µM,SK-MEL-5 [4],-25.5%
same,growth at 10 µM,MDA-MB-435,15.6%
same,growth at 10 µM,LOX IMVI,23.8%
same,growth at 10 µM,SF-539,38.5%
same,growth at 10 µM,SF-268,28.5%
same,growth at 10 µM,HCT-15 [5],18.2%
same,growth at 10 µM,NCI-H460,7.29%
same,growth at 10 µM,NCI-H322M,48.2%
same,GI50,DU-145,1.76 µM
same,LC50,DU-145,> 32.5 µM
same,TGI,DU-145,> 32.5 µM
same,GI50,UO-31,1.86 µM
same,TGI,UO-31,> 32.5 µM
same,CC50,UO-31,> 32.5 µM
same,GI50,PC-3,0.948 µM
same,IC50,PC-3,0.95 µM
same,TGI,PC-3,22.5 µM
same,CC50,PC-3,> 32.5 µM
same,GI50,RXF 393,3.02 µM
same,LC50 (concentration killing 50% of cells),RXF 393,> 32.5 µM
same,TGI,RXF 393,12 µM
same,GI50,SN12C,2.01 µM
same,TGI,SN12C,> 32.5 µM
same,CC50,SN12C,> 32.5 µM
same,GI50,OVCAR-5,13.7 µM
same,LC50 (concentration killing 50% of cells),OVCAR-5,> 32.5 µM
same,TGI,OVCAR-5,> 32.5 µM
same,GI50,OVCAR-4,3.18 µM
same,LC50 (concentration killing 50% of cells),OVCAR-4,> 32.5 µM
same,TGI,OVCAR-4,> 32.5 µM
same,GI50,SK-MEL-5 [6],1.3 µM
same,LC50 (concentration killing 50% of cells),SK-MEL-5 [6],13.8 µM
same,TGI,SK-MEL-5 [6],4.71 µM
same,GI50,UACC-257,4.34 µM
same,TGI,UACC-257,19.1 µM
same,CC50,UACC-257,> 32.5 µM
same,GI50,M14,1.4 µM
same,LC50 (concentration killing 50% of cells),M14,> 32.5 µM
same,TGI,M14,10.8 µM
same,GI50,SNB-19,1.91 µM
same,LC50 (concentration killing 50% of cells),SNB-19,> 32.5 µM
same,TGI,SNB-19,> 32.5 µM
same,growth at 10 µM,RPMI-8226,1.63%
same,growth at 10 µM,MOLT-4 [7],12.5%
same,growth at 10 µM,CCRF-CEM,10.6%
COc1cc(-c2nn(-c3cccc(NC(=O)c4ccc(N5CCOCC5)c(C(F)(F)F)c4)c3)cc2-c2ccncc2)ccc1Cl,growth at 10 µM,T47D,27.5%
same,growth at 10 µM,MDA-MB-468,-37.8%
same,growth at 10 µM,[1],-13.6%
same,growth at 10 µM,TK-10,17.8%
same,GI50,KM12,0.248 µM
same,IC50,KM12,0.25 µM
same,TGI,KM12,6.6 µM
same,CC50,KM12,> 100 µM
same,GI50,HCT-116,0.4 µM
same,TGI,HCT-116,> 100 µM
same,CC50,HCT-116,> 100 µM
same,GI50,HCT-15 [2],0.247 µM
same,LC50,HCT-15 [2],> 100 µM
same,TGI,HCT-15 [2],> 100 µM
same,GI50,NCI-H23,0.87 µM
same,LC50,NCI-H23,> 100 µM
same,TGI,NCI-H23,20.7 µM
same,GI50,SR,0.0369 µM
same,TGI,SR,> 100 µM
same,CC50,SR,> 100 µM
same,GI50,MOLT-4 [3],0.669 µM
same,TGI,MOLT-4 [3],> 100 µM
same,CC50,MOLT-4 [3],> 100 µM
same,growth at 10 µM,OVCAR-3,-29.9%
same,growth at 10 µM,IGROV-1,41.8%
same,growth at 10 µM,SK-MEL-5 [4],3.41%
same,growth at 10 µM,MDA-MB-435,-35.1%
same,growth at 10 µM,LOX IMVI,13.7%
same,growth at 10 µM,SF-539,-68.9%
same,growth at 10 µM,SF-268,22.5%
same,growth at 10 µM,HCT-15 [5],16.7%
same,growth at 10 µM,NCI-H460,5.02%
same,growth at 10 µM,NCI-H322M,54.2%
same,GI50,DU-145,0.388 µM
same,LC50,DU-145,> 100 µM
same,TGI,DU-145,> 100 µM
same,GI50,UO-31,0.289 µM
same,TGI,UO-31,7.53 µM
same,CC50,UO-31,> 100 µM
same,GI50,PC-3,0.251 µM
same,IC50,PC-3,0.25 µM
same,TGI,PC-3,14.7 µM
same,CC50,PC-3,> 100 µM
same,GI50,RXF 393,0.199 µM
same,LC50 (concentration killing 50% of cells),RXF 393,> 100 µM
same,TGI,RXF 393,0.674 µM
same,GI50,SN12C,1.09 µM
same,TGI,SN12C,> 100 µM
same,CC50,SN12C,> 100 µM
same,GI50,OVCAR-5,1.45 µM
same,LC50 (concentration killing 50% of cells),OVCAR-5,> 100 µM
same,TGI,OVCAR-5,> 100 µM
same,GI50,OVCAR-4,0.957 µM
same,LC50 (concentration killing 50% of cells),OVCAR-4,> 100 µM
same,TGI,OVCAR-4,> 100 µM
same,GI50,SK-MEL-5 [6],0.112 µM
same,LC50 (concentration killing 50% of cells),SK-MEL-5 [6],7.64 µM
same,TGI,SK-MEL-5 [6],0.675 µM
same,GI50,UACC-257,0.935 µM
same,TGI,UACC-257,8.14 µM
same,CC50,UACC-257,> 100 µM
same,GI50,M14,0.43 µM
same,LC50 (concentration killing 50% of cells),M14,> 100 µM
same,TGI,M14,16 µM
same,GI50,SNB-19,0.52 µM
same,LC50 (concentration killing 50% of cells),SNB-19,> 100 µM
same,TGI,SNB-19,> 100 µM
same,growth at 10 µM,RPMI-8226,8.3%
same,growth at 10 µM,MOLT-4 [7],4.07%
same,growth at 10 µM,CCRF-CEM,0.91%

# Reference: ChEMBL document CHEMBL2440076, “New triarylpyrazoles as broad-spectrum anticancer agents: design, synthesis, and biological evaluation” (Eur J Med Chem, 2013)
